Results as given in US9650379B2 (CHONG KUN DANG PHARMACEUTICAL CORP., priority 2013, dated 2017).
pIC50: −log10 of the molar value.

What was measured:
HDAC6 human recombinant = biological target: T1, HDAC6 human recombinant (Homo sapiens, UniProt Q9UBN7); assay: Inhibition of HDAC6 activity (fluorimetric assay); format: biochemical; details: test concentrations 0.1, 1, 10, 100 and 1000 nM; 37° C., 60 minutes
T1 construct: purchased Calbiochem 382180
T1 sequence (Q9UBN7 1-1215): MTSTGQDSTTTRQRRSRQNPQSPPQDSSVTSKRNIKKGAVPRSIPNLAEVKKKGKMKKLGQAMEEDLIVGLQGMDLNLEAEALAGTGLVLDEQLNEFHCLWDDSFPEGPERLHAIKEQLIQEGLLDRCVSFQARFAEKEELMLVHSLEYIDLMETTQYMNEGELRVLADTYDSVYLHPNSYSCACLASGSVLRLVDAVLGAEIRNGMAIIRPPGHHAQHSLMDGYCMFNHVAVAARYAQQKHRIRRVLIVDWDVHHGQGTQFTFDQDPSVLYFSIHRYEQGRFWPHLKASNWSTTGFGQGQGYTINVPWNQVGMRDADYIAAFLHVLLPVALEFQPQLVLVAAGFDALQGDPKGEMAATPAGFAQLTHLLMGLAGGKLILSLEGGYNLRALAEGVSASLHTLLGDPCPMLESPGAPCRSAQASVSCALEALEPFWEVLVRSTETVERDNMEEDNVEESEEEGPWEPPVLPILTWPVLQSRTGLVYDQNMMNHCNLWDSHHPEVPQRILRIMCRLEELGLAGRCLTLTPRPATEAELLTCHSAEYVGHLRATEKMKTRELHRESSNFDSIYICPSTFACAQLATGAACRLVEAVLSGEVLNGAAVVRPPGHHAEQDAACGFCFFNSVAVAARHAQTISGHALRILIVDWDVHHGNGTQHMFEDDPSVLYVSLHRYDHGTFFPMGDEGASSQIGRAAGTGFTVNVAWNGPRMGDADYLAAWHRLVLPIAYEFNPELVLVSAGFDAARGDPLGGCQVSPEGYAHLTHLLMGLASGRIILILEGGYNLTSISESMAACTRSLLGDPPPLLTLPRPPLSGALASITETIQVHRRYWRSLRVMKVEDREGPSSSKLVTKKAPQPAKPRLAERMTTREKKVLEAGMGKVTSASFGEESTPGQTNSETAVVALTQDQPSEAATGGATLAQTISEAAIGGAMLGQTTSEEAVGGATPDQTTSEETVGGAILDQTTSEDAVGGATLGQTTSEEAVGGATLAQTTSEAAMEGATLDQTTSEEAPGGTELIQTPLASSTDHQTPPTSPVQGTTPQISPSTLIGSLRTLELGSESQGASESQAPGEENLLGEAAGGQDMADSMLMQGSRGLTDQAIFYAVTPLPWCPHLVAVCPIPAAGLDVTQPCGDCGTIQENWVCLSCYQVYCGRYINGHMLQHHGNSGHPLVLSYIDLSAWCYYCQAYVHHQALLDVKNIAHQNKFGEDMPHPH
Method: (§1) Assays were performed using a HDAC1 fluorimetric drug discovery assay kit (Enzolifesciences: BML-AK511) and a HDAC6 human recombinant (Calbiochem: 382180). The assay mixture of the kit was treated with a test compound at concentrations of 100, 1000 and 10000 nM for HDAC1 assay and concentrations of 0.1, 1, 10, 100 and 1000 nM for HDAC6 assay. The treated assay mixture was allowed to react at 37° C. for 60 minutes, and then was treated with a developer and allowed to stand at 37° C. for 30 minutes, followed by quantification of the fluorescence.

HDAC1 = biological target: T2, HDAC1 (Homo sapiens, UniProt Q13547); assay: Inhibition of HDAC1 activity (HDAC1 fluorimetric drug discovery assay kit); format: biochemical; details: test concentrations 100, 1000 and 10000 nM; 37° C., 60 minutes
T2 construct: purchased Enzolifesciences BML-AK511
T2 sequence (Q13547 whole entry): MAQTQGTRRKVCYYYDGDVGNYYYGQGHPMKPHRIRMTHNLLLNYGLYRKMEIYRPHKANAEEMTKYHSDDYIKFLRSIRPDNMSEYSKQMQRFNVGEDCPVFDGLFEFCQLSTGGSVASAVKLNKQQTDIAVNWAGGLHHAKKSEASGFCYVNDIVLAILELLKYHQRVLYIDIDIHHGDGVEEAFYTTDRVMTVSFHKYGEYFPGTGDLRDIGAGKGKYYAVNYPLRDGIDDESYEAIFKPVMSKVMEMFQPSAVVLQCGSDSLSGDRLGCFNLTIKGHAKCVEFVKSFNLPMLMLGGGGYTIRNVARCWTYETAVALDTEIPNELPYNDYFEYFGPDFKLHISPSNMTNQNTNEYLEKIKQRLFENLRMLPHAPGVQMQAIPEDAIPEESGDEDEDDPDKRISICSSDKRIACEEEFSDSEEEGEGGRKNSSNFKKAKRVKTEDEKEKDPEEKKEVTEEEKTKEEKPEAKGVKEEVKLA
Method: as §1

| pIC50 (HDAC6 human recombinant) | pIC50 (HDAC1) | SMILES |
| --- | --- | --- |
| 8.48 | 6.25 | COc1ccc(CN2CC3(CCN(c4ccnc5c4ccn5Cc4ccc(C(=O)NO)cc4)CC3)C2)cc1 [Compound 1023, N-hydroxy-4-((4-(2-(4-methoxybenzyl)-2,7-diazaspiro[3.5]nonan-7-yl)-1H-pyrrolo[2,3-b]pyridin-1-yl)methyl)benzamide] |
| 7.42 | 5.79 | CC1CCN(c2cnc3c(ccn3Cc3ccc(C(=O)NO)cc3)c2)CC1 [Compound 805, N-hydroxy-4-((5-(4-methylpiperidin-1-yl)-1H-pyrrolo[2,3-b]pyridin-1-yl)methyl)benzamide] |
| 8.05 | 6.37 | O=C(NO)c1ccc(Cn2ccc3c(-c4cccc(CN5CCOCC5)c4)ccnc32)cc1 [Compound 761, N-hydroxy-4-((4-(3-(morpholinomethyl)phenyl)-1H-pyrrolo[2,3-b]pyridin-1-yl)methyl)benzamide] |
| 7.04 | 5.49 | CCC(F)(CC)CN1CCN(c2ccnc3c2ccn3Cc2ccc(C(=O)NO)cc2)CC1 [Compound 764, 4-((4-(4-(2-ethyl-2-fluorobutyl)piperazin-1-yl)-1H-pyrrolo[2,3-b]pyridin-1-yl)methyl)-N-hydroxybenzamide] |
| 7.08 | 5.50 | COc1ccc(-c2cnc3c(ccn3Cc3ccc(C(=O)NO)cc3)c2)cc1 [Compound 689, N-hydroxy-4-((5-(4-methoxyphenyl)-1H-pyrrolo[2,3-b]pyridin-1-yl)methyl)benzamide] |
| 8.15 | 5.91 | O=C(NO)c1ccc(Cn2ccc3cc(C4CCN(C(=O)c5cccc(F)c5)CC4)cnc32)cc1 [Compound 831, 4-((5-(1-(3-fluorobenzoyl)piperidin-4-yl)-1H-pyrrolo[2,3-b]pyridin-1-yl)methyl)-N-hydroxybenzamide] |
| 8.05 | 6.33 | O=C(NO)c1ccc(Cn2ccc3c(-c4ccncc4)ccnc32)cc1 [Compound 657, N-hydroxy-4-((4-(pyridin-4-yl)-1H-pyrrolo[2,3-b]pyridin-1-yl)methyl)benzamide] |
| 8.47 | 6.26 | O=C(NO)c1ccc(Cn2ccc3cc(C4CCN(Cc5ccccn5)CC4)cnc32)cc1 [Compound 844] |
| 8.07 | 6.17 | CC(CC(=O)O)N1CCC(c2ccnc3c2ccn3Cc2ccc(C(=O)NO)cc2)CC1 (stereo not shown) [Compound 1015, 3-(4-(1-(4-(hydroxycarbamoyl)benzyl)-1H-pyrrolo[2,3-b]pyridin-4-yl)piperidin-1-yl)butanoic acid] |
| 7.95 | 5.73 | O=C(NO)c1ccc(Cn2ccc3cc(N4CCN(Cc5ccccc5F)CC4)cnc32)cc1 [Compound 861, 4-((5-(4-(2-fluorobenzyl)piperazin-1-yl)-1H-pyrrolo[2,3-b]pyridin-1-yl)methyl)-N-hydroxybenzamide] |
| 7.85 | 5.75 | COc1cccc(CN2CCC(c3cnc4c(ccn4Cc4ccc(C(=O)NO)cc4)c3)CC2)c1 [Compound 842, N-hydroxy-4-((5-(1-(3-methoxybenzyl)piperidin-4-yl)-1H-pyrrolo[2,3-b]pyridin-1-yl)methyl)benzamide] |
| 8.13 | 5.96 | O=C(NO)c1ccc(Cn2ccc3cc(C4CCN(C(=O)c5ccc(CN6CCOCC6)cc5)CC4)cnc32)cc1 [Compound 897, N-hydroxy-4-((5-(1-(4-(morpholinomethyl)benzoyl)piperidin-4-yl)-1H-pyrrolo[2,3-b]pyridin-1-yl)methyl)benzamide] |
| 8.74 | 6.72 | O=C(NO)c1ccc(Cn2ccc3c(N4CCC5(CC4)CN(Cc4cccnc4)C5)ccnc32)cc1 [Compound 1024, N-hydroxy-4-((4-(2-(pyridin-3-ylmethyl)-2,7-diazaspiro[3.5]nonan-7-yl)-1H-pyrrolo[2,3-b]pyridin-1-yl)methyl)benzamide] |
| 8.68 | 5.68 | CN1CCN(c2ccccc2CN2CCC(c3cnc4c(ccn4Cc4ccc(C(=O)NO)cc4)c3)CC2)CC1 [Compound 883, N-hydroxy-4-((5-(1-(2-(4-methylpiperzin-1-yl)benzyl)piperidin-4-yl)-1H-pyrrolo[2,3-b]pyridin-1-yl)methyl)benzamide] |
| 7.80 | 5.89 | CC(C)(F)CN1CCC(c2cnc3c(ccn3Cc3ccc(C(=O)NO)cc3)c2)CC1 [Compound 618, 4-((5-(1-(2-fluoro-2-methylpropyl)piperidin-4-yl)-1H-pyrrolo[2,3-b]pyridin-1-yl)methyl)-N-hydroxybenzamide] |
| 7.21 | 5.72 | CC(C)(C)OC(=O)N1CC=C(c2ccc3ccn(Cc4ccc(C(=O)NO)cc4)c3n2)CC1 [Compound 744, tert-butyl 4-(1-(4-(hydroxycarbamoyl)benzyl)-1H-pyrrolo[2,3-b]pyridin-6-yl)-5,6-dihydropyridine-1(2H)-carboxylate] |
| 7.66 | 5.34 | O=C(NO)c1ccc(Cn2ccc3cc(-c4ccc5cccnc5c4)cnc32)cc1 [Compound 688, N-hydroxy-4-((5-(quinolin-7-yl)-1H-pyrrolo[2,3-b]pyridin-1-yl)methyl)benzamide] |
| 7.74 | 5.45 | O=C(NO)c1ccc(Cn2ccc3cc(C4=CCCCC4)cnc32)cc1 [Compound 648, 4-((5-(cyclohex-1-en-1-yl)-1H-pyrrolo[2,3-b]pyridin-1-yl)methyl)-N-hydroxybenzamide] |
| 8.11 | 6.21 | CN1CCC(c2cnc3c(ccn3Cc3ccc(C(=O)NO)cc3)c2)CC1 [Compound 867, N-hydroxy-4-((5-(1-methylpiperidin-4-yl)-1H-pyrrolo[2,3-b]pyridin-1-yl)methyl)benzamide] |
| 7.03 | 5.49 | O=C(NO)c1ccc(Cn2ccc3cc(C4CCN(Cc5cccc(C(F)(F)F)c5)CC4)cnc32)cc1 [Compound 871, N-hydroxy-4-((5-(1-(3-(trifluoromethyl)benzyl)piperidin-4-yl)-1H-pyrrolo[2,3-b]pyridin-1-yl)methyl)benzamide] |
| 8.35 | 6.08 | O=C(O)CCN1CCC(c2ccnc3c2ccn3Cc2ccc(C(=O)NO)cc2)CC1 [Compound 927, 3-(4-(1-(4-(hydroxycarbamoyl)benzyl)-1H-pyrrolo[2,3-b]pyridin-4-yl)piperidin-1-yl)propionic acid] |
| 8.42 | 6.55 | O=C(NO)c1ccc(Cn2ccc3c(C4CCN(Cc5ncccn5)CC4)ccnc32)cc1 [Compound 966, N-hydroxy-4-((4-(1-(pyrimidin-2-ylmethyl)piperidin-4-yl)-1H-pyrrolo[2,3-b]pyridin-1-yl)methyl)benzamide] |
| 8.22 | 6.10 | Cn1ncc2ccc(-c3cnc4c(ccn4Cc4ccc(C(=O)NO)cc4)c3)cc21 [Compound 685, N-hydroxy-4-((5-(1-methyl-1H-indazol-6-yl)-1H-pyrrolo[2,3-b]pyridin-1-yl)methyl)benzamide] |
| 7.85 | 5.64 | O=C(NO)c1ccc(Cn2ccc3cc(C4=CCC(F)(F)CC4)cnc32)cc1 [Compound 650, 4-((5-(4,4-difluorocyclohex-1-en-1-yl)-1H-pyrrolo[2,3-b]pyridin-1-yl)methyl)-N-hydroxybenzamide] |
| 8.12 | 6.28 | CN1CCN(c2ccccc2CN2CCC(c3ccnc4c3ccn4Cc3ccc(C(=O)NO)cc3)CC2)CC1 [Compound 984, N-hydroxy-4-((4-(1-(2-(4-methylpiperazin-1-yl)benzyl)piperidin-4-yl)-1H-pyrrolo[2,3-b]pyridin-1-yl)methyl)benzamide] |
| 8.80 | 6.19 | O=C(NO)c1ccc(Cn2ccc3cc(N4CCC5(CC4)CN(Cc4cccnc4)C5)cnc32)cc1 [Compound 957, N-hydroxy-4-((5-(2-(pyridin-3-ylmethyl)-2,7-diazaspiro[3.5]nonan-7-yl)-1H-pyrrolo[2,3-b]pyridin-1-yl)methyl)benzamide] |
